# Measurements reported in ChEMBL document CHEMBL1201862, “PubChem BioAssay data set” (2004).
#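 All cell lines were grown in 96-well plates and treated with compound for 48 hours. GI50: concentration for 50% inhibition of growth.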 Active and inactive are the calls of the source. Cut-off read from the data, not from the text of the source: active = GI50 up to about 1.1 µM and inactive = higher.
# Legend:
# Assay in all cases: NCI anticancer screen, dose series, 48 h
# RPMI-8226 = system: RPMI-8226
# CAKI-1 = system: CAKI-1
# SNB-78 = system: SNB-78
# KM-20L2 = system: KM-20L2
# SNB-19 = system: SNB-19
# TK-10 = system: TK-10
# MOLT-4 = system: MOLT-4
# SK-MEL-5 = system: SK-MEL-5
# HCT-116 = system: HCT-116
# NCI-H23 = system: NCI-H23
# U-251 = system: U-251
# M19-MEL = system: M19-MEL
# K562 = system: K562
# SF-268 = system: SF-268
# UACC-62 = system: UACC-62
# ACHN = system: ACHN
# OVCAR-3 = system: OVCAR-3
# NCI-H226 = system: NCI-H226
# OVCAR-4 = system: OVCAR-4
# OVCAR-8 = system: OVCAR-8
# IGROV-1 = system: IGROV-1
# LOX IMVI = system: LOX IMVI
# HOP-18 = system: HOP-18
# DMS-273 = system: DMS-273
# M14 = system: M14
# COLO 205 = system: COLO 205
# SK-OV-3 = system: SK-OV-3
# OVCAR-5 = system: OVCAR-5
# A549 = system: A549
# SN12C = system: SN12C
# XF498 = system: XF498
# KM12 = system: KM12
# HCC 2998 = system: HCC 2998
# NCI-H460 = system: NCI-H460
# HT-29 = system: HT-29
# DMS-114 = system: DMS-114
# LXFL 529 = system: LXFL 529
# RXF 631 = system: RXF 631
# Malme-3M = system: Malme-3M
# CCRF-CEM = system: CCRF-CEM
# EKVX = system: EKVX
# UACC-257 = system: UACC-257
# UO-31 = system: UO-31
# SW-620 = system: SW-620
# SF-295 = system: SF-295
# SNB-75 = system: SNB-75
# HOP-62 = system: HOP-62
# SK-MEL-2 = system: SK-MEL-2
# 786-0 = system: 786-0
# HCT-15 = system: HCT-15
# NCI-H522 = system: NCI-H522
# A498 = system: A498
# SF-539 = system: SF-539
# RXF 393 = system: RXF 393
# HOP-92 = system: HOP-92
# DLD-1 = system: DLD-1
# SK-MEL-28 = system: SK-MEL-28
# HL-60 = system: HL-60
# SR = system: SR
smiles,measurement,setting,value
Cc1cc(C)cc(-n2c3nc(=O)n(C)c(=O)c-3nc3ccccc32)c1,GI50,RPMI-8226,29.7 µM (inactive)
same,GI50,CAKI-1,37.8 µM (inactive)
same,GI50,SNB-78,35.6 µM (inactive)
same,GI50,KM-20L2,19.4 µM (inactive)
same,GI50,SNB-19,22.1 µM (inactive)
same,GI50,TK-10,42.3 µM (inactive)
same,GI50,MOLT-4,23 µM (inactive)
same,GI50,SK-MEL-5,15.8 µM (inactive)
same,GI50,HCT-116,23.9 µM (inactive)
same,GI50,NCI-H23,15.7 µM (inactive)
same,GI50,U-251,21.8 µM (inactive)
same,GI50,M19-MEL,6.07 µM (inactive)
same,GI50,K562,22.1 µM (inactive)
same,GI50,SF-268,65.6 µM (inactive)
same,GI50,UACC-62,16.7 µM (inactive)
same,GI50,ACHN,27.4 µM (inactive)
same,GI50,OVCAR-3,3.34 µM (inactive)
same,GI50,NCI-H226,34.7 µM (inactive)
same,GI50,OVCAR-4,18.5 µM (inactive)
same,GI50,OVCAR-8,27.6 µM (inactive)
same,GI50,IGROV-1,36.1 µM (inactive)
same,GI50,LOX IMVI,29.3 µM (inactive)
same,GI50,HOP-18,> 100 µM (inactive)
same,GI50,DMS-273,16.7 µM (inactive)
same,GI50,M14,27 µM (inactive)
same,GI50,COLO 205,7.29 µM (inactive)
same,GI50,SK-OV-3,> 100 µM (inactive)
same,GI50,OVCAR-5,39.5 µM (inactive)
same,GI50,A549,26.7 µM (inactive)
same,GI50,SN12C,26.8 µM (inactive)
same,GI50,XF498,36.3 µM (inactive)
same,GI50,KM12,27.1 µM (inactive)
same,GI50,HCC 2998,18.1 µM (inactive)
same,GI50,NCI-H460,23.9 µM (inactive)
same,GI50,HT-29,10.3 µM (inactive)
same,GI50,DMS-114,13.4 µM (inactive)
same,GI50,LXFL 529,48.4 µM (inactive)
same,GI50,RXF 631,22.5 µM (inactive)
same,GI50,Malme-3M,16 µM (inactive)
same,GI50,CCRF-CEM,23.2 µM (inactive)
same,GI50,EKVX,17.7 µM (inactive)
same,GI50,UACC-257,15.3 µM (inactive)
same,GI50,UO-31,64.1 µM (inactive)
same,GI50,SW-620,17 µM (inactive)
same,GI50,SF-295,36 µM (inactive)
same,GI50,SNB-75,34.9 µM (inactive)
same,GI50,HOP-62,45.4 µM (inactive)
same,GI50,SK-MEL-2,22.9 µM (inactive)
same,GI50,786-0,81.7 µM (inactive)
same,GI50,HCT-15,21 µM
same,GI50,NCI-H522,17.5 µM (inactive)
same,GI50,A498,> 100 µM (inactive)
same,GI50,SF-539,21.4 µM (inactive)
same,GI50,RXF 393,> 100 µM (inactive)
C/C(=N\NC(=S)NC(CCC(=O)O)C(=O)O)c1ccccn1 (stereo unspecified),GI50,HOP-92,> 100 µM (inactive)
same,GI50,RPMI-8226,> 100 µM (inactive)
same,GI50,SNB-78,> 100 µM (inactive)
same,GI50,DLD-1,> 100 µM (inactive)
same,GI50,KM-20L2,> 100 µM (inactive)
same,GI50,SNB-19,> 100 µM (inactive)
same,GI50,TK-10,> 100 µM (inactive)
same,GI50,MOLT-4,> 100 µM (inactive)
same,GI50,SK-MEL-5,> 100 µM (inactive)
same,GI50,HCT-116,> 100 µM (inactive)
same,GI50,NCI-H23,> 100 µM (inactive)
same,GI50,U-251,> 100 µM (inactive)
same,GI50,M19-MEL,> 100 µM (inactive)
same,GI50,K562,> 100 µM (inactive)
same,GI50,SF-268,> 100 µM (inactive)
same,GI50,UACC-62,> 100 µM (inactive)
same,GI50,ACHN,> 100 µM (inactive)
same,GI50,OVCAR-3,> 100 µM (inactive)
same,GI50,NCI-H226,> 100 µM (inactive)
same,GI50,OVCAR-4,> 100 µM (inactive)
same,GI50,OVCAR-8,> 100 µM (inactive)
same,GI50,IGROV-1,> 100 µM (inactive)
same,GI50,LOX IMVI,> 100 µM (inactive)
same,GI50,HOP-18,> 100 µM (inactive)
same,GI50,M14,> 100 µM (inactive)
same,GI50,COLO 205,> 100 µM (inactive)
same,GI50,SK-MEL-28,> 100 µM (inactive)
same,GI50,SK-OV-3,> 100 µM (inactive)
same,GI50,OVCAR-5,> 100 µM (inactive)
same,GI50,A549,> 100 µM (inactive)
same,GI50,SN12C,> 100 µM (inactive)
same,GI50,XF498,> 100 µM (inactive)
same,GI50,KM12,> 100 µM (inactive)
same,GI50,HCC 2998,> 100 µM (inactive)
same,GI50,NCI-H460,> 100 µM (inactive)
same,GI50,HT-29,> 100 µM (inactive)
same,GI50,DMS-114,> 100 µM (inactive)
same,GI50,HL-60,> 100 µM (inactive)
same,GI50,LXFL 529,> 100 µM (inactive)
same,GI50,RXF 631,> 100 µM (inactive)
same,GI50,Malme-3M,> 100 µM (inactive)
same,GI50,CCRF-CEM,> 100 µM (inactive)
same,GI50,EKVX,> 100 µM (inactive)
same,GI50,UACC-257,> 100 µM (inactive)
same,GI50,UO-31,> 100 µM (inactive)
same,GI50,SW-620,> 100 µM (inactive)
same,GI50,SF-295,> 100 µM (inactive)
same,GI50,SNB-75,> 100 µM (inactive)
same,GI50,HOP-62,> 100 µM (inactive)
same,GI50,SK-MEL-2,> 100 µM (inactive)
same,GI50,786-0,> 100 µM (inactive)
same,GI50,HCT-15,> 100 µM
same,GI50,NCI-H522,> 100 µM (inactive)
same,GI50,SR,> 100 µM (inactive)
same,GI50,A498,> 100 µM (inactive)
same,GI50,SF-539,> 100 µM (inactive)
same,GI50,RXF 393,> 100 µM (inactive)
